Structures are written as SMILES. Values joined by “and” are separate entries in the source; they are usually repeats but may differ in a detail not shown here. Identical values can stand only once.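 Grown in 96-well plates, cells were treated for 48 hours with each compound at five concentrations. Insufficient inhibition: endpoint recorded as highest concentration tested. The concentration for 50% growth inhibition is given as GI50. The concentration for full growth arrest is given as TGI.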

The test deals with MDA-MB-468 breast. The experiment in a line: inhibition of tumour cell growth, NCI panel, 48 h.

As for `COC1=C(C)C(=O)c2c(c(CCCl)c3n2CCC3OC(C)=O)C1=O` (configuration not stated), the GI50 was 5010 nM and the TGI turned out to be 22500 nM.

With `CCc1cnn2c(NCc3ccc[n+]([O-])c3)cc(N3CCCC[C@H]3CCO)nc12`, the GI50 was < 10 nM and 2.21 nM; the TGI is < 10 nM and 5.88 nM.

Consider `O=c1cnnc(N/N=C/c2ccccc2O)[nH]1`, for which the GI50 was 265 nM and the TGI stood at 3320 nM.

As for `CN(C)CCCSc1ccccc1NC1=C(Cl)C(=O)C(Nc2ccccc2SCCCN(C)C)=C(Cl)C1=O`, the GI50 is 1520 nM and the TGI was 3220 nM.

In the case of `CCCC(=O)NC(c1ccc2c(c1)OC(F)(F)O2)c1cc(C)c2cccnc2c1O` (configuration not stated), the GI50 was 370 nM and the TGI is 2210 nM.

For the molecule `COc1cc(/C=C2\CCC/C(=C\c3ccc(O)c(OC)c3)C2=O)ccc1O`, the GI50 is 1460 nM and the TGI is 3480 nM.

As for `COc1cc(N2C(=O)[C@H](c3ccccc3)C2c2ccc(SC)cc2)cc(OC)c1OC` (some centres not stated), the GI50 is 27.1 nM and the TGI was 92.9 nM.

For `COc1ccc(CCN(CC(=O)N(CC(N)=O)C2CCC[C@@H]2OCc2ccccc2)C(=O)CN(C(=O)CN(CCc2ccc(Cl)cc2)C(=O)CN(C(=O)CN(C)Cc2ccccc2F)[C@H](C)C2CCCCC2)[C@H](C)C2CCCCC2)cc1OC` (some centres not stated), the GI50 is 941 nM and the TGI was determined as 4200 nM.

For `N#Cc1c(NC(=O)c2ccc(F)cc2)sc2c1CCCC2`, the GI50 was above 25000 nM and the TGI is above 25000 nM.

In the case of `O=C(c1ccc(C(F)(F)F)c(Cl)c1)N(Cc1ccc(Cl)cc1)c1ccc(-c2cc(C(F)(F)F)[nH]n2)c(O)c1`, the GI50 was 928 nM and the TGI stood at 3910 nM.

Take `COc1cccc(-c2cc(=O)c3cc(N4CCOCC4)ccc3[nH]2)c1`: the GI50 was 927 nM and the TGI is above 100000 nM.

Turning to `COC(=O)c1ccccc1CC1Cc2cc3c(cc2C1=O)CCC3` (configuration not stated), the GI50 is 10600 nM and the TGI was determined as 42100 nM.

Regarding `CC(C)(c1ccccc1)c1cc(O)c(C(C)(C)c2ccccc2)cc1O`, the GI50 was 376 nM and the TGI is 3720 nM.

Regarding `O=C1c2cccnc2C(=O)c2c1c(C(=O)OCCN1CCCCC1)c1ccccn21`, the GI50 is 869 nM and the TGI turned out to be 2840 nM.

With `NC(=S)N/N=C1\c2ccccc2-c2c(F)c(F)c(F)c(F)c21`, the GI50 is 2490 nM and the TGI was found to be 5140 nM.

For `CC(=O)CC/C=C(\C)[C@H](O)[C@H](C)C(=O)O[C@H]1C[C@H](C)C=C2C=C[C@@]3(C)O[C@@H](O)CC(=O)[C@]3(C)[C@H]21`, the GI50 was 454 nM and the TGI amounted to 2000 nM.

On to `COc1cc(CNCCN2C(=O)c3ccc4c5c(ccc(c35)C2=O)C(=O)N(CCNCc2cc(OC)c(OC)c(OC)c2)C4=O)cc(OC)c1OC`, for which the GI50 was 123 nM and the TGI was found to be 323 nM.

Consider `CC(C)(C)CC(C)(C)c1ccc(O)c(Cc2ccc(Cl)cc2Cl)c1`, for which the GI50 is 1660 nM and the TGI was 3080 nM.

As for `Cc1ccc2cccc(OC(=O)Nc3cccc(C(F)(F)F)c3)c2n1`, the GI50 is 3650 nM and the TGI is 12900 nM.

As to `Cn1cc(C2=C(c3cn(-c4ccccc4)c4ccccc34)C(=O)NC2=O)c2ccccc21`, the GI50 was 7580 nM and the TGI was above 25000 nM.

With `COC(=O)c1cc2oc(/C=C3/SC(=S)N(N)C3=O)cc2n1Cc1ccccc1`, the GI50 was 74400 nM and the TGI was above 100000 nM.

Regarding `COC(=O)[C@]12CC[C@@H](C)[C@H](C)[C@@H]1C1=CC[C@@H]3[C@@]4(C)C[C@@H](OC(=O)/C=C/c5ccccc5)[C@H](O)[C@@](C)(CO)[C@@H]4[C@H](O)C[C@@]3(C)[C@]1(C)CC2`, the GI50 was 2540 nM and the TGI was found to be 8940 nM.

Consider `Cc1ccc(C=C2C(Cl)=C(Cl)C(Cl)=C2Cl)cc1`, for which the GI50 was 189 nM and the TGI is 573 nM.

With `COc1ccc(C2CC(c3ccc(Nc4ccnc5cc(Cl)ccc45)cc3)=NN2C=O)cc1` (configuration not stated), the GI50 is 1000 nM and the TGI stood at 6840 nM.

Regarding `C#CC(=O)Nc1cccc2c1cc(C)n2-c1nc2c(c(NCc3ccccc3)n1)CCCC2`, the GI50 is 211 nM and the TGI was 596 nM.

On to `CN(C)CC(=O)Nc1ccc2ncnc(Nc3ccc(Oc4cccc(C(F)(F)F)c4)c(Cl)c3)c2c1`, for which the GI50 was 1280 nM and the TGI was found to be 3230 nM.

On to `O=C1CC(c2ccccc2)Cc2nc3ccc(Br)cc3cc21` (configuration not stated), for which the GI50 was 2230 nM and the TGI stood at 7940 nM.

`O=C(C=P(c1ccccc1)(c1ccccc1)c1ccccc1)CCl`: the GI50 was 268 nM and the TGI stood at 1280 nM.

On to `Cn1c(=O)nc2n(-c3ccc(Cl)cc3)c3cc(Cl)ccc3nc-2c1=O`, for which the GI50 is 1590 nM and the TGI amounted to 3070 nM.

As for `C=CC(=O)N1C[C@@H]2CCOc3c(Cl)c(-c4c(O)cccc4F)c(F)c4ncnc(c34)N2C[C@H]1C`, the GI50 is 2330 nM and the TGI was found to be 10400 nM.

For `Oc1c(Cl)cc(Cl)cc1/C=N/Nc1nnc(N/N=C/c2cc(Cl)cc(Cl)c2O)c2ccccc12`, the GI50 is 337 nM and the TGI came out at 1880 nM.

As to `CC1(C)N=C(N)N=C(N)N1c1ccc(Cl)cc1`, the GI50 is 873 nM and the TGI was above 100000 nM.

As to `CC(C)(C)c1cc(NC(=O)Nc2ccc(-c3cn4c(n3)sc3cc(OCCN5CCOCC5)ccc34)cc2)no1`, the GI50 is 3640 nM and 2550 nM and > 10000 nM; the TGI was 12200 nM and 14200 nM and > 10000 nM.

`Clc1cc(Cl)c(OCCCCCCN2CCNCC2)c(Cl)c1`: the GI50 is 2140 nM and the TGI was determined as 4610 nM.

For `Cn1cc(-c2nc(-c3c[nH]c4ncccc34)cs2)c2ccccc21`, the GI50 was 314 nM and the TGI worked out at 820 nM.

For the molecule `COc1ccc(NC2=C(I)C(=O)c3ncccc3C2=O)cc1`, the GI50 is 1350 nM and the TGI was determined as 2940 nM.

As to `CN1CCN(c2ccc(Nc3nc(NCCCNS(=O)(=O)c4ccccc4)c4sccc4n3)cc2)CC1`, the GI50 is 11800 nM and the TGI stood at 26400 nM.

For `COc1ccc(/C=C2\COc3ccc(O)c(O)c3C2=O)c(OC)c1OC`, the GI50 is 2180 nM and the TGI stood at 6280 nM.

For `CC(C)[C@@](O)(c1ccc2cc(OC(F)F)c(OC(F)F)cc2c1)c1cn[nH]n1`, the GI50 was 12900 nM and the TGI stood at 47400 nM.

Consider `COc1ccc(C(=NN=C(N)N)c2ccc(OC)cc2)cc1`, for which the GI50 is 1710 nM and the TGI came out at 4710 nM.

On to `CC(C)(C)c1cc(/C=N/NC(=O)c2ccccc2NC(=O)c2cccs2)c(O)c(C(C)(C)C)c1`, for which the GI50 is 386 nM and the TGI amounted to 20500 nM.

`C#Cc1cccc(Nc2ncnc3ccc(OCCCCNCCS(C)(=O)=O)cc23)c1`: the GI50 was 94 nM and the TGI worked out at 666 nM.

With `COc1cc(/C=C/c2cc(/C=C/c3ccc(O)c(OC)c3)n(C(=O)Nc3ccccc3Cl)n2)ccc1O`, the GI50 was 264 nM and the TGI was found to be 748 nM.

On to `COCCOC1=CC(=O)c2c(O)ccc(O)c2C1=O`, for which the GI50 is 1270 nM and the TGI is 2780 nM.

For the molecule `CC1(C)N=C(N)N=C(N)N1c1ccc(OCCCNC(=O)Nc2cccc(S(=O)(=O)F)c2)c(Cl)c1`, the GI50 is 15700 nM and the TGI is above 100000 nM.

For the molecule `O=Nc1c(-c2c(O)[nH]c3cc(Br)ccc23)[nH]c2ccccc12`, the GI50 was 2000 nM and the TGI came to 4930 nM.

These data come from PubChem BioAssay (NCI).
